“Also recorded” adds a separate entry of the source. Each block holds one compound with its values, some of them ahead of it.
Legend:
Type in all cases: physicochemical
[1] = Physical and chemical stability of Form CSI on storage (purity by UPLC, solid form by XRPD); conditions: for Time for which crystalline state doesn't change (stable): open and sealed package
Text: X-ray powder diffraction patterns in the present disclosure were acquired by a Bruker X-ray powder diffractometer. The parameters of the X-ray powder diffraction method of the present disclosure are as follows:
(§1) The related substance in the present disclosure was detected by UPLC and the parameters are shown below.
Said “open packaged” is putting the sample into a glass vial, covering the vial with aluminum foil, and punching 5-10 holes on the foil.
Said “sealed packaged” is putting the sample into a glass vial, capping the vial tightly, and sealing the vial in an aluminum foil bag.
A certain amount of Form CSI of the present disclosure and prior art amorphous were weighed and stored under 25° C./60% RH, 40° C./75% RH and 60° C./75% RH conditions, respectively. The purity and solid form were determined by UPLC and XRPD.

[2] = Stability at high temperature (80° C., purity by UPLC); conditions: for Chemical stability in words / Final purity / Purity change: 2 days; for Final purity / Purity change: glass vial with cap; for Initial purity: before storage at 80° C.
Experimental: as §1
Approximately 10 mg of Form CSI of the present disclosure and prior art amorphous were stored at 80° C. for 2 days, and the initial and final purities were determined by UPLC, as shown in Table 11.

[3] = Hygroscopicity by dynamic vapor sorption (DVS); conditions: for Weight gain at 80% RH: 25° C.; for Hygroscopicity class: weight gain at 80% RH, Chinese Pharmacopoeia definition
Experimental: Dynamic Vapor Sorption (DVS) was measured via an SMS (Surface Measurement Systems Ltd.) intrinsic DVS instrument. Typical Parameters for DVS test are as follows:
Gas and flow rate: nitrogen, 200 mL/min
RH range: 0% RH to 95% RH
Certain amounts of Form CSI of the present disclosure and prior art amorphous were sampled for hygroscopicity tests using dynamic vapor sorption (DVS) instrument. The weight change at each relative humidity is recorded during the cycle of 0% RH-95% RH-0% RH at 25° C., and the experimental results are listed in Table 12. The DVS plots of Form CSI and amorphous are as depicted in FIG. 8 and FIG. 9, respectively.
Description and definition of hygroscopicity (general notice 9103 drug hygroscopicity test guidelines in 2020 edition of Chinese Pharmacopoeia, experimental condition: 25±1° C., 80±2% RH): […]

[4] = XRPD before and after formulation process; conditions: before and after the formulation process
Experimental: According to the formulation and process in Table 13 and Table 14, the drug products were prepared with an appropriate amount of Form CSI of the present disclosure. XRPD were tested before and after formulation.

[5] = 25° C./60% RH, open packaged, 6 months
[6] = 25° C./60% RH, sealed packaged, 6 months
[7] = 40° C./75% RH, open packaged, 6 months
[8] = 40° C./75% RH, sealed packaged, 6 months
[9] = 60° C./75% RH, open packaged, 1 month
[10] = 60° C./75% RH, sealed packaged, 1 month

- Impurity number exceed the qualificated threshold [1, 5]: 1
- Purity [1, 5]: 99.57%
- Purity change [1, 5]: −0.23%
- Solid form [1, 5]: Amorphous
- Impurity number exceed the qualificated threshold [1, 6]: 1
- Purity [1, 6]: 99.65%
- Purity change [1, 6]: −0.15%
- Solid form [1, 6]: Amorphous
- Purity decrease ([1]; 40° C./75% RH, open package, 6 months): 3.46%
- Impurity number exceed the qualificated threshold [1, 7]: 4
- Purity [1, 7]: 96.34%
- Purity change [1, 7]: −3.46%
- Solid form [1, 7]: Amorphous
- Impurity number exceed the qualificated threshold ([1]; 40° C./75% RH, open packaged, 6 months, listed as prior art amorphous): four
- Impurity number exceed the qualificated threshold ([1]; 40° C./75% RH, open packaged, 6 months, listed as prior art solid): four
- Impurity number exceed the qualificated threshold [1, 8]: 2
- Purity [1, 8]: 99.18%
- Purity change [1, 8]: −0.62%
- Solid form [1, 8]: Amorphous
- Purity decrease ([1]; 60° C./75% RH, open package, 1 month): over 6.3%
- Impurity number exceed the qualificated threshold [1, 9]: 4
- Purity [1, 9]: 93.48%
- Purity change [1, 9]: −6.32%
- Solid form [1, 9]: Amorphous
- Impurity number exceed the qualificated threshold ([1]; 60° C./75% RH, open packaged, 1 month, listed as prior art amorphous): four
- Impurity number exceed the qualificated threshold ([1]; 60° C./75% RH, open packaged, 1 month, listed as prior art solid): four
- Purity decrease ([1]; 60° C./75% RH, sealed package, 1 month): 2.76%
- Impurity number exceed the qualificated threshold [1, 10]: 2
- Purity [1, 10]: 97.04%
- Purity change [1, 10]: −2.76%
- Solid form [1, 10]: Amorphous
- Impurity number exceed the qualificated threshold ([1]; 60° C./75% RH, sealed packaged, 1 month, listed as prior art amorphous): two
- Impurity number exceed the qualificated threshold ([1]; 60° C./75% RH, sealed packaged, 1 month, listed as prior art solid): two
- Impurity number exceed the qualificated threshold ([1]; Initial (before storage)): 1
- Purity ([1]; Initial (before storage)): 99.80%
- Chemical stability in words ([2]; 80° C.): significant degradation
- Final purity ([2]; 80° C.): 98.64%
- Purity change ([2]; 80° C.): −1.16%
- Initial purity [2]: 99.80%
- Weight gain at 80% RH ([3]; DVS, listed as Prior art solid): 3.69%
- Weight gain at 80% RH ([3]; DVS, listed as prior art solid): 3.69%
- Hygroscopicity class ([3]; listed as prior art solid): hygroscopic
Structure (SMILES): C=CC(=O)N1CCC[C@@H](n2c(=O)n(-c3ccc(Oc4ccccc4)cc3)c3c(N)nccc32)C1 [Amorphous, (R)-1-(1-acryloylpiperidin-3-yl)-4-amino-3-(4-phenoxyphenyl)-1H-imidazo[4,5-c]pyridin-2(3H)-one]

- Chemical purity during storage ([1]; 25° C./60% RH, 6 months): above 99.8%
- Time for which crystalline state doesn't change (stable) ([1]; 25° C./60% RH): at least 6 months
- Impurity number exceed the qualificated threshold [1, 5]: 0
- Purity [1, 5]: 99.81%
- Purity change [1, 5]: −0.05%
- Solid form [1, 5]: Form CSI
- Impurity number exceed the qualificated threshold [1, 6]: 0
- Purity [1, 6]: 99.89%
- Purity change [1, 6]: 0.03%
- Solid form [1, 6]: Form CSI
- Chemical purity during storing ([1]; 40° C./75% RH 6 months and 60° C./75% RH 1 month): above 99.8%
- Time for which crystalline state doesn't change (stable) ([1]; 40° C./75% RH): at least 6 months
- Impurity number exceed the qualificated threshold [1, 7]: 0
- Purity [1, 7]: 99.81%
- Purity change [1, 7]: −0.05%
- Solid form [1, 7]: Form CSI
- Impurity number exceed the qualificated threshold [1, 8]: 0
- Purity [1, 8]: 99.92%
- Purity change [1, 8]: 0.06%
- Solid form [1, 8]: Form CSI
- Time for which crystalline state doesn't change ([1]; 60° C./75% RH, open or sealed package): at least 1 month
- Impurity number exceed the qualificated threshold [1, 9]: 0
- Purity [1, 9]: 99.86%
- Purity change [1, 9]: 0.00%
- Solid form [1, 9]: Form CSI
- Impurity number exceed the qualificated threshold [1, 10]: 0
- Purity [1, 10]: 99.85%
- Purity change [1, 10]: −0.01%
- Solid form [1, 10]: Form CSI
- Impurity number exceed the qualificated threshold ([1]; Initial (before storage)): 0
- Purity ([1]; Initial (before storage)): 99.86%
- Time for which chemical purity remains substantially unchanged ([2]; 80° C.): at least 2 days
- Chemical stability in words ([2]; 80° C.): basically remains unchanged
- Final purity ([2]; 80° C.): 99.95%
- Purity change ([2]; 80° C.): 0.01%
- Initial purity [2]: 99.94%
- Weight gain of Form CSI relative to that of the prior art ([3]; DVS): 1/7
- Weight gain at 80% RH ([3]; DVS): 0.53%
- Hygroscopicity class [3]: slightly hygroscopic
- Physical stability on formulation process (XRPD) [4]: physically stable
Structure (SMILES): C=CC(=O)N1CCC[C@@H](n2c(=O)n(-c3ccc(Oc4ccccc4)cc3)c3c(N)nccc32)C1 [Form CSI, (R)-1-(1-acryloylpiperidin-3-yl)-4-amino-3-(4-phenoxyphenyl)-1H-imidazo[4,5-c]pyridin-2(3H)-one]
- Impurity content versus the qualificated threshold ([1]; throughout the stability investigation processes): does not exceed the qualificated threshold; also recorded: did not exceed the qualificated threshold
